Data: patent publication US5545517A, “Selective metal ion detection using a photoluminescent indicator binding to a macromolecule-metal ion complex” (The United States of America as represented by the …, priority 1994, dated 1996)
pKd: −log10 of the molar value.

Columns and labels:
carbonic anhydrase = settings: observed by Chen titrating the enzyme with dansylamide; cited from earlier work
[1] = target: T1, carbonic anhydrase from bovine erythrocytes (Bos taurus, UniProt P00921); test: binding of dansylamide to the zinc-containing carbonic anhydrase active site (fluorescence titration); settings: binding site when zinc is present there
T1 construct: purchased Sigma C-7500; host or cells: bovine erythrocytes
T1 sequence (P00921 2-260 limits assumed): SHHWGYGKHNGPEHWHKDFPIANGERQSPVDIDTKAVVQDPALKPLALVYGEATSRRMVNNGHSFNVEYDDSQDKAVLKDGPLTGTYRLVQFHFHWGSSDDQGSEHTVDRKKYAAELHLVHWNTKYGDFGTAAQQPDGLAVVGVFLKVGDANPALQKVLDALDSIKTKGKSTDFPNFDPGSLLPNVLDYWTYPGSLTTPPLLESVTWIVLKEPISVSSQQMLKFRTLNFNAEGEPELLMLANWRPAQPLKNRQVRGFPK
Method: N,N-dimethyl-1-aminonaphthalene-8-sulfonamide (dansylamide) was from Aldrich, HEPES (Ultrapure grade) was from Baker, and other buffer salts were reagent grade or better. […] Following passage through the chelating resin, solutions were stored in clean polyethylene containers and pipetted using plastic pipets or metal-free pipet tips; fluorescence was measured in cuvettes made of synthetic fused silica. Carbonic anhydrase from bovine erythrocytes (Sigma C-7500) was stripped of its Zn atom by prolonged dialysis at 4 C. in 50 mM sodium acetate pH 5.4 buffer containing approximately 5 mM 2,6-dipicolinic acid (Aldrich). […]
Fluorescence emission spectra and emission intensities in cuvettes were measured on a modified ISS K2 fluorometer 60 (Champaign, Ill.) using a Liconix 4114NB laser 36 emitting approximately 5 mW multimode at 326n m for excitation. […] For some measurements through the fiber the off-axis paraboloid, objective lens, and fiber holder were mounted in the ISS fluorometer in place of the cuvette holder, as described elsewhere (Thompson, R. B., Lakowicz, J. R., Anal. Chem 65 853-57 (1993)); in these experiments the chopper and lock-in were not used and the DC output of the Hamamatsu R928 photodetector was directly quantitated on the instrument's digital voltmeter after amplification. […]

[2] = storage stability in solution; type: physicochemical; settings: dilute solution, under these conditions (4° C.)

CN(C)c1cccc2c(S(N)(=O)=O)cccc12 [dansylamide]
fluorescence enhancement (carbonic anhydrase): 15 fold | pKd [1]: 6.62 | stability [2]: not stable for more than a week
